In US7795299B2, “Neo-tanshinlactone and analogs as potent and selective anti-breast cancer agents” (The University of North Carolina at Chapel Hill, priority 2004, dated 2010):
In brackets after ≈: the same amount, converted by molar mass.

Columns and labels:
[1] = test system: ZR-75-1 (estrogen receptor positive breast cancer); assay: In vitro anticancer assay (SRB), ZR-75-1; type: cell-based, human; conditions: Homo sapiens, ZR-75-1, 72 h, concentration that reduces cell growth by 50%, 3 days in culture, read-out: ED50, ZR-75-1 (ER+)
Protocol: (§1) All stock cultures were grown in T-25 flasks. Freshly trypsinized cell suspensions were seeded in 96-well microtiter plates at densities of 1500-7500 cells per well with compounds added from DMSO-diluted stock. After 3 days in culture, attached cells were fixed with cold 50% trichloroacetic acid and then stained with 0.4% sulforhodamine B (SRB). The absorbency at 562 nm was measured using a microplate reader after solubilizing the bound dye.
as §1, with “Biological assay. All” for “All”, “cultures are” for “cultures were”, “96-well microtitre” for “96-well microtiter”

[2] = test system: MDA-MB-231 (estrogen receptor negative breast cancer); assay: In vitro anticancer assay (SRB), MDA-MB-231; type: cell-based, human; conditions: concentration that reduces cell growth by 50%, 3 days in culture, SRB; for IC50: Homo sapiens, MDA-MB-231, 72 h, read-out: ED50, MDA-MB-231 (ER−)
Protocol: as §1
as §1, with “Biological assay. All” for “All”, “cultures are” for “cultures were”, “96-well microtitre” for “96-well microtiter”

[3] = test system: MCF-7 (estrogen receptor positive breast cancer); assay: In vitro anticancer assay (SRB), MCF-7; type: cell-based, human; conditions: for IC50: MCF7, 72 h, read-out: ED50, MCF-7 (ER+)
Protocol: as §1
as §1, with “Biological assay. All” for “All”, “cultures are” for “cultures were”, “96-well microtitre” for “96-well microtiter”

[4] = test system: HS 587-T (estrogen receptor negative breast cancer); assay: In vitro anticancer assay (SRB), HS 587-T; type: cell-based, human; conditions: concentration that reduces cell growth by 50%, 3 days in culture, printed HS587-1 in Table 4
Protocol: as §1
as §1, with “Biological assay. All” for “All”, “cultures are” for “cultures were”, “96-well microtitre” for “96-well microtiter”

[5] = test system: A431 (EGFR over-expressing skin cancer); assay: In vitro anticancer assay (SRB), A431; type: cell-based, human; conditions: Homo sapiens, A-431, 72 h; concentration that reduces cell growth by 50%, 3 days in culture, SRB; read-out: ED50, A431
Protocol: (§2) In Vitro Anticancer Assay (Nakanishi, Y. et al., J. Med. Chem. 2003, 46, 3185). All stock cultures were grown in T-25 flasks. Freshly trypsinized cell suspensions were seeded in 96-well microtiter plates at densities of 1500-7500 cells per well with compounds added from DMSO-diluted stock. After 3 days in culture, attached cells were fixed with cold 50% trichloroacetic acid and then stained with 0.4% sulforhodamine B (SRB). The absorbency at 562 nm was measured using a microplate reader after solubilizing the bound dye. The mean ED50 is the concentration of agent that reduces cell growth by 50% under the experimental conditions and is the average from at least three independent determinations that were reproducible and statistically significant (FIG. 2). The following human tumor cell lines were used in the assay: A549 (non small cell lung cancer), MCF-7 (estrogen receptor positive breast cancer), ZR-75-1 (estrogen receptor positive breast cancer), MDA-MB-231 (estrogen receptor negative breast cancer), HS 587-T (estrogen receptor negative breast cancer), SK− BR-3 (HER-2-overexpressing breast cancer), A431 (EGFRoverexpressing skin cancer), LN-CaP (AR-dependent prostate cancer), SW620 (colon cancer), PC-3 (prostate cancer), KB (nasopharyngeal carcinoma), KB-VIN (vincristine-resistant KB subline). All cell lines were obtained from the Lineberger Comprehensive Cancer Center (UNC-CH) or from ATCC (Rockville, Md.) and were cultured in RPMI-1640 medium supplemented with 25 mMHEPES, 0.25% sodium bicarbonate, 10% fetal bovine serum, and 100 μg/mL kanamycin.
(§3) Biological assay. All stock cultures are grown in T-25 flasks. Freshly trypsinized cell suspensions were seeded in 96-well microtitre plates at densities of 1500-7500 cells per well with compounds added from DMSO-diluted stock. After 3 days in culture, attached cells were fixed with cold 50% trichloroacetic acid and then stained with 0.4% sulforhodamine B (SRB). The absorbency at 562 nm was measured using a microplate reader after solubilizing the bound dye. The mean ED50 is the concentration of agent that reduces cell growth by 50% under the experimental conditions and is the average from at least three independent determinations that were reproducible and statistically significant. The following human tumor cell lines were used in the assay: A549 (non-small cell lung cancer), MCF-7 (estrogen receptor positive breast cancer), ZR-75-1 (estrogen receptor positive breast cancer), MDA MB-231 (estrogen receptor negative breast cancer), HS 587-T (estrogen receptor negative breast cancer), SK-BR-3 (estrogen receptor negative, HER-2 over-expressing breast cancer), A431 (EGFR over-expressing skin cancer), LN-CaP (AR-dependent prostate cancer), SW620 (colon cancer), PC-3 (prostate cancer), KB (nasopharyngeal carcinoma), KB-VIN (Vincristine resistant KB subline). All cell lines were obtained from the Lineberg Cancer Center (UNC-CH) or from ATCC (Rockville, Md.) and were cultured in RPMI-1640 medium supplemented with 25 mM HEPES, 0.25% sodium bicarbonate, 10% fetal bovine serum, and 100 μg/mL kanamycin.

SW620 (colon cancer) = assay: In vitro anticancer assay (SRB), SW620; type: cell-based, human; conditions: Homo sapiens, SW-620, 72 h; concentration that reduces cell growth by 50%, 3 days in culture, SRB; read-out: ED50, SW620
Protocol: as §2, §3

[6] = test system: SK-BR-3 (HER-2-overexpressing breast cancer); assay: In vitro anticancer assay (SRB), SK-BR-3; type: cell-based, human; conditions: Homo sapiens, SK-BR-3, 72 h; concentration that reduces cell growth by 50%, 3 days in culture, SRB; read-out: ED50, SK-BR-3 (ER−, HER2+)
Protocol: as §2, §3

[7] = test system: ER+ human breast cancer (MCF-7 and ZR-75-1); assay: Comparison of potency and selectivity against ER+ breast cancer cell lines in vitro; type: cell-based; conditions: against ER+ cell lines
Protocol: as §2
as §1, with “Biological assay. All” for “All”, “cultures are” for “cultures were”, “96-well microtitre” for “96-well microtiter”, “dye. The mean ED50 is the concentration of agent that reduces cell growth by 50% under the experimental conditions and is the average from at least three independent determinations that were reproducible and statistically significant. […]” for “dye.”

[8] = test system: KB (nasopharyngeal carcinoma); assay: In vitro anticancer assay (SRB), KB; type: cell-based, human; conditions: Homo sapiens, 72 h; concentration that reduces cell growth by 50%, 3 days in culture, SRB; read-out: ED50, KB
Protocol: as §2, §3

[9] = test system: several human cancer cell lines; assay: Cytotoxic activity against several human tumor cell lines (panel, overall statements); type: cell-based; conditions: several human tumor cell lines, Table 4
Protocol: as §2
as §1, with “Biological assay. All” for “All”, “cultures are” for “cultures were”, “96-well microtitre” for “96-well microtiter”, “dye. […]” for “dye.”

[10] = Homo sapiens, concentration that reduces cell growth by 50%, 3 days in culture, SRB

Structure (SMILES) | melting point [°C] | IC50 [1] [µg/mL] | IC50 [2] [µg/mL] | IC50 [3, 10] [µg/mL] | ED50, HS 587-T (ER−) [4] [µg/mL] | IC50 [5] [µg/mL] | IC50 (SW620 (colon cancer)) [µg/mL] | IC50 [6] [µg/mL] | times better activity than compound 2a and tamoxifen [7] [times] | IC50 [8] [µg/mL] | overall cytotoxic activity (in words) [9] | inhibition at 20 µg/mL ([3]; Homo sapiens, MCF7, at 20 μg/mL (Table 4), read-out: Percent inhibition at the test concentration (bracketed value), MCF-7) [%] | ED50, MDA-MB-231 (ER−) [2] [µg/mL] | ED50, MCF-7 (ER+) ([3]; concentration that reduces cell growth by 50%, 3 days in culture, SRB) [µg/mL]
Cc1coc2c1c(=O)oc1c3ccccc3ccc21 [Compound 2a, 17-Methyl-11,15-dioxa-cyclopenta[a]phenanthren-12-one] | 205 to 207 | 4 (≈ 16 µM) | 10.3 (≈ 41.2 µM) | 4 (≈ 16 µM) | 7.5 (≈ 30 µM) | – | – | – | – | – | – | – | – | –
CCc1cccc2c1ccc1c3occ(C)c3c(=O)oc21 [Compound 2c, 4-Ethyl-17-methyl-11,15-dioxa-cyclopenta[a]phenanthren-12-one] | 145 to 147 | 0.18 (≈ 0.647 µM) | 10.3 (≈ 37 µM) | 0.45 (≈ 1.62 µM) | 10 (≈ 35.9 µM) | > 10 | > 10 | 0.1 (≈ 0.359 µM) | 10 | > 10 | – | – | – | –
Cc1coc2c1c(=O)oc1c3ccccc3c(Cl)cc21 [Compound 2d, 6-Chloro-17-methyl-11,15-dioxa-cyclopenta[a]phenanthren-12-one] | 220 to 221 | 8.6 (≈ 30.2 µM) | – | 5 (≈ 17.6 µM) | – | 8 (≈ 28.1 µM) | > 10 | 4.5 (≈ 15.8 µM) | – | > 10 | did not show strong activity | – | – | –
COc1cc2c3occ(C)c3c(=O)oc2c2ccccc12 [Compound 2e, 6-Methoxy-17-methyl-11,15-dioxa-cyclopenta[a]phenanthren-12-one] | 203 to 205 | > 10 | – | 5 (≈ 17.8 µM) | – | 9.5 (≈ 33.9 µM) | 9 (≈ 32.1 µM) | 8.6 (≈ 30.7 µM) | – | > 10 | did not show strong activity | – | – | –
O=c1oc2c(ccc3ccccc32)c2c1C(O)CO2 (centres unmarked) [Compound 3a, 17-Hydroxy-16,17-dihydro-11,15-dioxa-cyclopenta[a]phenanthren-12-one] | 203 to 205 | – | 3.8 (≈ 14.9 µM) | 12.5 (≈ 49.2 µM) | – | – | – | – | – | – | – | – | – | –
Cc1cccc2c1ccc1c3c(c(=O)oc12)C(O)CO3 (centres unmarked) [Compound 3b, 17-Hydroxy-4-methyl-16,17-dihydro-11,15-dioxa-cyclopenta[a]phenanthren-12-one] | – | > 10 | – | 8.3 (≈ 30.9 µM) | – | 3.2 (≈ 11.9 µM) | > 10 | 8 (≈ 29.8 µM) | – | > 10 | – | – | – | –
CCc1cccc2c1ccc1c3c(c(=O)oc12)C(O)CO3 (centres unmarked) [Compound 3c, 4-Ethyl-17-hydroxy-16,17-dihydro-11,15-dioxa-cyclopenta[a]phenanthren-12-one] | 163 to 165 | – | 5 (≈ 17.7 µM) | 5 (≈ 17.7 µM) | – | 3 (≈ 10.6 µM) | – | – | – | – | – | – | – | –
O=c1oc2c(cc(Cl)c3ccccc32)c2c1C(O)CO2 (centres unmarked) [Compound 3d, 6-Chloro-17-hydroxy-16,17-dihydro-11,15-dioxa-cyclopenta[a]phenanthren-12-one] | 150 | > 10 | – | 5.6 (≈ 19.4 µM) | – | 7.8 (≈ 27 µM) | 4.2 (≈ 14.5 µM) | 8 (≈ 27.7 µM) | – | 9.5 (≈ 32.9 µM) | – | – | – | –
COc1cc2c3c(c(=O)oc2c2ccccc12)C(O)CO3 (centres unmarked) [Compound 3e, 17-Hydroxy-6-methoxy-16,17-dihydro-11,15-dioxa-cyclopenta[a]phenanthren-12-one] | 210 to 212 | 5.7 (≈ 20.1 µM) | – | 5.6 (≈ 19.7 µM) | – | 6.5 (≈ 22.9 µM) | > 10 | 9 (≈ 31.7 µM) | – | 6.8 (≈ 23.9 µM) | – | – | – | –
O=c1oc2c3ccccc3ccc2c2occc12 [Compound 4a, 11,15-Dioxa-cyclopenta[a]phenanthren-12-one] | 198 to 200 | – | 10.5 (≈ 44.4 µM) | > 20 | – | – | – | – | – | – | – | 17 | – | –
Cc1cccc2c1ccc1c3occc3c(=O)oc21 [Compound 4b, 4-Methyl-11,15-dioxa-cyclopenta[a]phenanthren-12-one] | 220 to 222 | > 10 | – | 5.5 (≈ 22 µM) | – | 8.3 (≈ 33.2 µM) | > 10 | 8.5 (≈ 34 µM) | – | > 10 | – | – | – | –
CCc1cccc2c1ccc1c3occc3c(=O)oc21 [Compound 4c, 4-Ethyl-11,15-dioxa-cyclopenta[a]phenanthren-12-one] | 173 to 174 | – | > 10 | > 10 | – | – | – | – | – | – | – | – | – | –
O=c1oc2c3ccccc3c(Cl)cc2c2occc12 [Compound 4d, 6-Chloro-11,15-dioxa-cyclopenta[a]phenanthren-12-one] | 150 | > 10 | – | 7 (≈ 25.9 µM) | – | > 10 | > 10 | > 10 | – | > 10 | – | – | – | –
COc1cc2c3occc3c(=O)oc2c2ccccc12 [Compound 4e, 6-Methoxy-11,15-dioxa-cyclopenta[a]phenanthren-12-one] | 194 to 195 | 8.5 (≈ 31.9 µM) | – | 3.4 (≈ 12.8 µM) | – | 9.5 (≈ 35.7 µM) | 4 (≈ 15 µM) | 4 (≈ 15 µM) | – | 9.5 (≈ 35.7 µM) | – | – | – | –
C[C@H]1COC2=C1C(=O)C(=O)c1c2ccc2c1CCCC2(C)C [cryptotanshinone, reference compound] | – | – | 0.16 (≈ 0.54 µM) | 0.41 (≈ 1.38 µM) | – | – | – | – | – | – | – | – | – | –
Cc1coc2c1C(=O)C(=O)c1c-2ccc2c(C)cccc12 [tanshinone I, reference compound] | – | – | – | – | – | – | – | – | – | – | – | – | 0.75 (≈ 2.71 µM) | 0.82 (≈ 2.97 µM)
Cc1coc2c1C(=O)C(=O)c1c-2ccc2c1CCCC2(C)C [tanshinone IIA, reference compound] | – | – | 0.7 (≈ 2.38 µM) | 0.38 (≈ 1.29 µM) | – | – | – | – | – | – | – | – | – | –
